These results are taken from PMC12114444, “Biochemical Characterization and Polyester-Binding/Degrading Capability of Two Cutinases from Aspergillus fumigatus” (Microorganisms, 2025).

For the assay, the system named is AfCutB. Conditions: 30 °C, 5 min; standard assay 0.05 M Tris-HCl pH 8.5 (results text: optimal conditions, optimum pH 9.0).

SMILES strings stand for the structures.

The Km is the concentration of substrate that gives half-maximal velocity. For the compound `CCCC(=O)Oc1ccc([N+](=O)[O-])cc1` [p-nitrophenyl butyrate], the Km was found to be 6.29 mM.
